In one assay the test system is IL-2. Put plainly: Th1/Th2 cytokine measurement (cytometric bead array) in LPS-stimulated RAW 264.7 macrophages, IL-2. The assay is classed as cell-based, mouse. Conditions: 50 μM, 24 hr, LPS-induced RAW 264.7; reduced from 1.032 pg/mL. The method, then:
(§1) RAW 264.7 cells were cultured at a concentration of 2 × 10^5 cells/mL in a 48-well microplate and allowed to adhere for 24 hr. Subsequently, they were subjected to lipopolysaccharide (LPS) treatment at a concentration of 0.1 µg/mL, along with psoralen at concentrations of 5, 20, and 50 µM. […] Following an incubation period of 24 hr, the supernatant was collected, and the levels of pro-inflammatory Th1 cytokines (IFN-γ, TNF-α, and IL-2), as well as anti-inflammatory Th2 cytokines (IL-4, IL-6, and IL-10) were quantified. The experimental protocol adhered to the manufacturer's guidelines and utilized the BD TM cytometric beads array human Th1/Th2 cytokine kit (BD-Biosciences). Data acquisition was performed using a BD LSR FortessaTM cell analyzer flow cytometer.

The next assay deals with T1, COX-1 (Mus musculus, UniProt P22437).
T1 construct: endogenous in cells; host or cells: RAW 264.7 macrophages, LPS-stimulated
T1 sequence (P22437 27-602): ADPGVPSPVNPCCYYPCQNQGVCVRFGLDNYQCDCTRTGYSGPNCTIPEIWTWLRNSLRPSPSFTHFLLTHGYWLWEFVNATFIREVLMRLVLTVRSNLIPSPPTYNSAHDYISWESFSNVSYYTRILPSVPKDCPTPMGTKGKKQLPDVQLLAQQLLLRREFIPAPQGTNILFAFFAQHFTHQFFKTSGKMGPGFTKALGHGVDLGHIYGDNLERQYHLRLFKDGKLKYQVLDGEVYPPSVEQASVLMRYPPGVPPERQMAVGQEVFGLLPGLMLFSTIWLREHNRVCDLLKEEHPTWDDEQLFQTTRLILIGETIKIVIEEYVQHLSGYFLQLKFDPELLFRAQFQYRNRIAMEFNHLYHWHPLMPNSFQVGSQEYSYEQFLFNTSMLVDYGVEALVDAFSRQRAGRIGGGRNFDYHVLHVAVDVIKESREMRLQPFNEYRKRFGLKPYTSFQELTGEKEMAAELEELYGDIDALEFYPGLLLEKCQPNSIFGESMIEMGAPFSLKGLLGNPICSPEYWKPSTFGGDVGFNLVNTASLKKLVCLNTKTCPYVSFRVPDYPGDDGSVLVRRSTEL
Put plainly: Fluorometric COX activity assay in LPS-stimulated RAW 264.7 cells, COX-1. In kind it is cell-based. Conditions: LPS 0.1 µg/mL, 24 hr, untreated control 95.19 µU/mg. The method, then: (§2) Evaluation of COX-1 and COX-2 enzyme activity was performed using the fluorometric COX activity assay kit provided by Biovision. RAW 264.7 cells were cultured at a density of 2 × 10^5 cells/mL in a 48-well microplate and allowed to adhere for a period of 24 hr. Subsequently, cells were treated with LPS at a concentration of 0.1 µg/mL and psoralen at concentrations of 5, 20, and 50 µM. The cyclooxygenase enzyme activity assay was performed after a 24 hr incubation period. To initiate the assay, cells were removed using TNE buffer containing Tris (40 mM), NaCl (150 mM), and EDTA (1 mM), followed by a washing step using 1x PBS. Cells were then resuspended in 1 mL of 1x PBS, transferred to a 1.5 mL tube, and subjected to centrifugation at 500x g for 3 min. The resulting pellet was resuspended in 0.5 mL of lysis buffer containing a protease inhibitor cocktail, followed by vortexing and incubation at 4°C for 5 min. Subsequently, the cell lysate was centrifuged at 12,000 x g for 3 min, and the supernatant was collected for the COX activity assay. The fluorometric cyclooxygenase activity assay kit provided by Biovision was utilized according to the manufacturer's instructions to assess COX activity. This assay incorporates specific inhibitors for COX-1 and COX-2 enzymes, allowing differentiation of their respective activities and those of other peroxidases.

The next assay concerns IL-10. Put plainly: Th1/Th2 cytokine measurement (cytometric bead array) in LPS-stimulated RAW 264.7 macrophages, IL-10. In kind it is cell-based, mouse. Conditions: 50 μM, 24 hr, LPS-induced RAW 264.7; increased from 0.857 pg/mL. Here is the method:
as §1

A further assay addresses T2, COX-2 (Mus musculus, UniProt Q05769).
T2 construct: the supernatant was collected for the COX activity assay; endogenous in cells; host or cells: RAW 264.7 macrophages, LPS-stimulated
T2 sequence (Q05769 18-604): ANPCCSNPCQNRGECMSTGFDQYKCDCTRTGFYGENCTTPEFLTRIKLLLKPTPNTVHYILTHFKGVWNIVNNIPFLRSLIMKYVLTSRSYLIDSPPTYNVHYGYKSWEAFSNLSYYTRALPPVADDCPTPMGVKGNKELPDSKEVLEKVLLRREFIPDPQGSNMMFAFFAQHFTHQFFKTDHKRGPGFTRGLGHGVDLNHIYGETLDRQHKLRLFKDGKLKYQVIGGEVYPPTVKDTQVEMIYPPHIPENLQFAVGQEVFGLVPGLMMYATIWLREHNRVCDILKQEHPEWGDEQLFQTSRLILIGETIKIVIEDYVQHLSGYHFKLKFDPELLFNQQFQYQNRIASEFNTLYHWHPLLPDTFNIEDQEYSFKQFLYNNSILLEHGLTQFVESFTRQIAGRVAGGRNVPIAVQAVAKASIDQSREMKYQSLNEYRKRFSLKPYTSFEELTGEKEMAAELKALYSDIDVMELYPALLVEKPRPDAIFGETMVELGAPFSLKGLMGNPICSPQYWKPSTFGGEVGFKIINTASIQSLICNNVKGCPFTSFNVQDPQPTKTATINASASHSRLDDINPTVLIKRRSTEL
Put plainly: Fluorometric COX activity assay in LPS-stimulated RAW 264.7 cells, COX-2. The assay is classed as cell-based. Conditions: LPS 0.1 µg/mL, 24 hr, untreated control 113.81 µU/mg. Here is the method: as §2

A further assay relates to IL-4. The experiment in a line: Th1/Th2 cytokine measurement (cytometric bead array) in LPS-stimulated RAW 264.7 macrophages, IL-4. Conditions: 50 μM, 24 hr, LPS-induced RAW 264.7; increased from 0.81 pg/mL. In kind it is cell-based, mouse. The method, then: as §1
The next assay deals with T3, 15-LOX from G. max (Glycine max, UniProt P08170).
T3 sequence (P08170 1-839): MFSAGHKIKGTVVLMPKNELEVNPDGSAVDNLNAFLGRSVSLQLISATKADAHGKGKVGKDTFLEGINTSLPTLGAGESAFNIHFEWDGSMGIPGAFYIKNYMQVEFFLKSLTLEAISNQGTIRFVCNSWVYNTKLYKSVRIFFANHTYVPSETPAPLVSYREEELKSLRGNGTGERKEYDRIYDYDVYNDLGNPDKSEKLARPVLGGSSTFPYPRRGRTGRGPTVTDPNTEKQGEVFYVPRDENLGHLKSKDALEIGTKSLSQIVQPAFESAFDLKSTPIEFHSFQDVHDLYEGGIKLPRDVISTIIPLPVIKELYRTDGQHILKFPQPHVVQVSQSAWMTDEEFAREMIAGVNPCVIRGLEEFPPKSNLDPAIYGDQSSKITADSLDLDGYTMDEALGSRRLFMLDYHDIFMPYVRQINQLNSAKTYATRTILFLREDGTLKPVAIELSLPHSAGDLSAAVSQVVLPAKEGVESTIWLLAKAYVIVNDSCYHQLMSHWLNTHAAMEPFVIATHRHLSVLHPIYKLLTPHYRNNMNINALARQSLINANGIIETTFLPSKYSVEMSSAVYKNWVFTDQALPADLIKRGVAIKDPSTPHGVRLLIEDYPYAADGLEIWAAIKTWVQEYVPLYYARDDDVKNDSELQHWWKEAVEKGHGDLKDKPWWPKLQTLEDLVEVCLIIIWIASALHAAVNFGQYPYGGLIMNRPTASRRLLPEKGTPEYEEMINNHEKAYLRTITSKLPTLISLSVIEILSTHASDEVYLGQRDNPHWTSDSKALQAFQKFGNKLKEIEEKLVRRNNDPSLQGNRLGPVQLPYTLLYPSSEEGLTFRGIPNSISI
Put plainly: Soybean LOX inhibition assay (ferrous oxidation-xylenol orange). The assay is classed as biochemical. Conditions: linoleic acid 140 µM, pH 7.4, 25°C, mean ± SD. The method, then: The assay was conducted following a previously described methodology with minor adjustments. The assay is based on the measurement of the formation of the Fe3+/xylenol orange complex on a spectrophotometer at a wavelength of 560 nm. 15-LOX from G. max was incubated with samples or standard inhibitors at a temperature of 25°C for 5 min. The concentration ranges of the samples ranged from 200 to 1.56 µg/mL for extracts and fractions and from 100 to 0.78 µM for compounds. Subsequently, linoleic acid (at a final concentration of 140 µM) in Tris–HCl buffer (at a pH of 7.4 and a concentration of 50 mM), and the mixture was incubated at a temperature of 25°C for 20 min in the absence of light. The assay was concluded by adding 100 µL of FOX reagent, which consisted of sulfuric acid (at a concentration of 30 mM), xylenol orange (at a concentration of 100 µM), and iron (II) sulfate (at a concentration of 100 µM) in a methanol/water mixture (at a ratio of 9 : 1). For control, only the LOX solution and buffer were pipetted into the wells. The blanks (background) contained the LOX enzyme during incubation, but the substrate (linoleic acid) was added after the addition of the FOX reagent. […] The percentage inhibition was calculated using the following formula: % inhibition = ((Acontrol–Ablank)−(Asample−Ablank)/(Acontrol−Ablank)) ×100. Here, Acontrol represents the absorbance of the control well, Ablank represents the absorbance of the blank well, and Asample represents the absorbance of the sample well.

The test system of assay [1] is NO production in LPS-activated RAW 264.7 macrophages. The experiment in a line: Inhibition of nitric oxide (NO) production in LPS-activated RAW 264.7 macrophages (Griess reagent). The assay is classed as cell-based, mouse. Conditions: for IC50: Mus musculus. The method, then: The mouse-derived macrophage cell line RAW 264.7, purchased from the American Type Culture Collection (ATCC TIB-71, Rockville, MD, USA), was cultured in DMEM medium supplemented with 10% FCS and 1% penicillin/streptomycin/fungizone (PSF) under conventional cell culture conditions at a temperature of 37°C and a carbon dioxide concentration of 5% in a controlled humid atmosphere. Routine maintenance in culture (passage) was performed following ATCC instructions.
The RAW 264.7 macrophage cells were introduced into 96 well microtiter plates at a density of 2 × 10^5 cells/mL. Subsequently, cells were subjected to activation through incubation in a medium consisting of 1 µg/mL LPS alone, acting as the control. Furthermore, lipopolysaccharide was combined with varying concentrations of samples dissolved in DMSO (concentration ranges were 200–1.56 µg/mL for extracts and fractions and 100–0.78 µM for compounds). […] The quantity of nitric oxide released from macrophages was assessed using Griess reagent as previously described. All experiments for the measurement of nitric oxide inhibition were conducted three times in triplicate.
For orientation: Nitrite, measured by Griess reagent, commonly stands in for NO production.

In the next assay the test system is TNF-α. The experiment in a line: Th1/Th2 cytokine measurement (cytometric bead array) in LPS-stimulated RAW 264.7 macrophages, TNF-α. In kind it is cell-based, mouse. Conditions: 50 μM, 24 hr, LPS-induced RAW 264.7; reduced from 4,418.86 pg/mL. The method, then: as §1
A further assay has as its system IL-6. The experiment in a line: Th1/Th2 cytokine measurement (cytometric bead array) in LPS-stimulated RAW 264.7 macrophages, IL-6. The assay is classed as cell-based, mouse. Conditions: 50 μM, 24 hr, LPS-induced RAW 264.7; increased from 156.96 pg/mL. Here is the method: as §1
The next assay has as its system IFN-γ. The experiment in a line: Th1/Th2 cytokine measurement (cytometric bead array) in LPS-stimulated RAW 264.7 macrophages, IFN-γ. The assay is classed as cell-based, mouse. Conditions: 50 μM, 24 hr, LPS-induced RAW 264.7; reduced from 1.12 pg/mL. Here is the method:
as §1

Assay [2] has as its system NO production in LPS-stimulated RAW 264.7 murine macrophages. The arrangement: method as in Choi et al. [47]. Conditions: isolated from Trachelospermum jasminoides, ref Choi et al. [47]; cited from earlier work.
The mark [3] stands for this setting: RAW264.7, LPS 1 µg/mL activated RAW 264.7 macrophage cells, mean ± SD, read-out: NO inhibition IC50.

In brackets after ≈: the same amount, converted by molar mass. Like-named read-outs stand apart in the source and are kept apart here. Marks after values point to notes of the source that are not given here.

With `O=c1ccc2cc3ccoc3cc2o1` [(1), psoralen], the IL-2 level with IL-2 is 0.551 pg/mL. Besides, the COX-1 activity on COX-1 (psoralen 5 μM) was 44.35 µU/mg; on COX-1 (psoralen 20 μM), 31.25 µU/mg; on COX-1 (psoralen 50 μM) it was 22.73 µU/mg. Also, the IL-10 level with IL-10 is 1.122 pg/mL. Further, the COX-2 activity on COX-2 (psoralen 5 μM) is given as 88.33 µU/mg; at COX-2 (psoralen 20 μM), 58.1 µU/mg; on COX-2 (psoralen 50 μM), 43.84 µU/mg. This compound showed an IL-4 level in the assay with IL-4 of 2.22 pg/mL. Further, the IC50 against 15-LOX from G. max was 18.4 µM; in [1] (setting [3]), 1.19 ± 0.45 µg/mL (≈ 6.39 µM). Also, in the assay with TNF-α, the TNF-α level is reported as 1,032.66 pg/mL. Moreover, the IL-6 level in the assay on IL-6 came out at 255.31 pg/mL. For the same compound, the IFN-γ level with IFN-γ is 0.56 pg/mL.
As to `CC[C@H](CC[C@@H](C)[C@H]1CC[C@H]2[C@@H]3CC=C4C[C@@H](O[C@@H]5O[C@H](CO)[C@@H](O)[C@H](O)[C@H]5O)CC[C@]4(C)[C@H]3CC[C@]12C)C(C)C` [(3), β-sitosterol glucoside], the IC50 against 15-LOX from G. max is 25.3 µM; in assay [1] (setting [3]), 26.1 ± 3.01 µg/mL (≈ 45.3 µM). The “Reduction of NO production” value in [2] is 72.8%.
Regarding `COc1ccc2c(c1)c(CC(=O)O)c(C)n2C(=O)c1ccc(Cl)cc1` [Indomethacin, indomethacin, reference compound], in assay [1] (RAW264.7, read-out: NO inhibition IC50), the IC50 was determined as 3.79 ± 0.88 µg/mL (≈ 10.6 µM).
As to “octadecanyl-3[4-hydroxyphenyl]-prop-2-enoate [(2)]”, on 15-LOX from G. max, the “15-LOX inhibition IC50” value was 35.57 ± 2.35^j μg/mL. Moreover, the “NO inhibition IC50” value in [1] (LPS 1 µg/mL activated RAW 264.7 macrophage cells, mean ± SD) is recorded as 39.41 ± 2.29^g μg/mL.

A word on the IC50: it is the concentration needed to halve the response being measured.

The record behind these values is publication PMC11257762, “Psoralen Isolated from the Roots of Dorstenia psilurus Welw. Modulate Th1/Th2 Cytokines and Inflammatory Enzymes in LPS-Stimulated RAW 264.7 Macrophages” (Mediators of Inflammation, 2024).
